According to patent publication US20080267880A1, “AUTOMATED METHOD FOR HIGH THROUGHTOUT SCREENING OF NEMATODES” (priority 2002, published 2008):
Where “and” joins values, the source holds several entries; their conditions need not be identical. Equal entries are not always repeated.

Experiments:
[1] = tested on: wild-type worms (C. elegans N2); type: in vivo, Caenorhabditis elegans
Description: Eggs were transferred to 24-well plates (Corning Inc., NY) containing 1 ml S-medium, without cholesterol, plus 1×10^8 cells/ml E. coli OP50, and grown at 25° C. All assays were performed on 3 day old egg-laying hermaphrodites. For worms treated with the superoxide/dismutase mimetic Euk-134 (Eukarion, Mass.) a single dose was added from a 5 mM stock (in Milli-Q water) on day one. At adulthood, 100 μL of culture media was removed from each well and replaced with 100 μL of paraquat stock solution (final concentration 40 mM). The cultures were then placed back at 25° C. and scored 48 h later for touch-provoked movement using a platinum wire. Immediately following the manual score, SYTOX green dye was added to each well to a final concentration of 1 μM.
We then examined the utility of SYTOX green dye as a score of death due to oxidative stress by incubating 3 day old gravid adult worms in the presence or absence of 40 mM paraquat for 48 hr. Death was first scored by the absence of touch provoked movement and 15 min later by the presence of SYTOX-associated fluorescence (FIG. 6A). […] Following the addition of […] SYTOX green dye and incubation for 15 min at room temperature, death was scored as the presence of fluorescence (FIG. 6A). The mean fraction alive (±SEM) as scored by SYTOX-associated fluorescence was 0.95±0.02 (n=69) in controls and 0.07±0.04 (n=157) in paraquat treated worms.
The utility of SYTOX dye was further tested in an experiment in which worms were cultured in the presence or absence of Euk-134 prior to paraquat exposure (FIG. 6B). […] The mean fraction alive (±SEM) scored by touch-provoked movement was 0.06±0.03 (n=47, 40 mM paraquat) and 0.78±0.11 (n 51, 40 mM paraquat+0.5 mM Euk134). The mean fraction alive (±SEM) scored using SYTOX dye was 0.13±0.00 (n=45, 40 mM paraquat) and 0.92±0.01 (n=51, 40 mM paraquat+0.5 mM Euk134). In each of these experiments the percentage of animals scored as alive using the SYTOX score was always slightly higher than the manual score.

wild type C. elegans N2 [2] = test: Microplate thermotolerance assay (35° C. heat shock, SYTOX fluorescence score of death); type: in vivo, Caenorhabditis elegans; set-up: thermotolerance compared to untreated wild type worms: dose or concentration left out as unconfirmed; conditions: heat shock 35° C.
Description: Worms (˜10,000 to 20,000) were washed off NGM plates with 10 ml S-basal into a 15 ml tube. After gravity settling for 5 minutes, 9 ml S-basal was aspirated and replaced with fresh 9 ml S-basal. Following a further 2 washes the nematodes were introduced to the sample cup on the COPAS™ BIOSORT at a concentration of 1 worm per μl. Worms were dispensed, 1 animal per well, into either 96 well or 384 well microtitre plates according to the manufacturers instructions. For thermotolerance assays 384 well low volume plates (Greiner Bio-One Inc, Longwood, Fla.) were prepared with 20 μl S-medium containing SYTOX® at a final concentration of 1 μM. […]
The thermotolerance assay was performed in a Fluoroskan Ascent fluorometer (Thermo Labsystems, Finland). The ambient temperature of the fluorometer was set to 35° C. and Ascent software was configured to measure the fluorescence from each well every 30 minutes over a 20-24 hour period with a 20 millisecond measurement time for each well. At this setting a complete 384 well plate could be read within 30 seconds. The excitation wavelength for fluorescence was 485 nm and the emission wavelength 538 nm.
Analysis of individual fluorescence curves was performed using the Fluoroskan Ascent software. A 100% increase in fluorescence over baseline was used a cut-off to define a death event. […]

wild type C. elegans N2 [3] = conditions: Babar et al. (1999); cited from earlier work
[4] = 40 mM paraquat+0.5 mM Euk134, 48 h

COc1cccc(C=NCCN=Cc2cccc(OC)c2[O-])c1[O-].[Cl-].[Mn+3] [Euk-134]
mean fraction alive (±SEM), scored by touch-provoked movement [1, 4]: 0.78±0.11 | mean fraction alive (±SEM), scored using SYTOX dye [1, 4]: 0.92±0.01

O=c1cc(N2CCOCC2)oc2c(-c3ccccc3)cccc12 [LY294002, 2-(4-Morpholinyl)-8-phenyl-4H-1-benzopyran-4-one]
effect of the drug on thermotolerance (wild type C. elegans N2 [2]; 100 nM LY294002): no significant effect | thermotolerance compared to untreated wild type worms (wild type C. elegans N2 [2]; grown from eggs to 4 day adults in S-medium at 20° C.): significantly more thermotolerant | thermotolerance of treated wild type worms (previously shown) (wild type C. elegans N2 [3]): confers thermotolerance similar to that seen in age-1(hx546)

C[n+]1ccc(-c2cc[n+](C)cc2)cc1 [paraquat]
mean fraction alive (±SEM), SYTOX-associated fluorescence score ([1]; 40 mM paraquat alone, 48 h, 3 day old gravid adults, 15 min SYTOX): 0.07±0.04 and 0.13±0.00
